# According to US9951110B2, “Neuropeptides useful as insecticides” (THE STATE OF ISRAEL, MINISTRY OF AGRICULTURE & RURAL …, priority 2013, dated 2018):
# Square brackets hold non-standard residues; d marks the D form. Ends that are not written are not given here.
# Tests used:
# [1] = tested on: Heliothis peltigera female moths; experiment: Topical application of agonistic peptides: stimulation of sex pheromone biosynthesis (solvent effect on penetrability); type: in vivo
# Experimental: FIG. 6. is a graph showing the effect of a topically applied peptide (Peptide 12 in Table 1) on stimulation of sex pheromone biosynthesis in Heliothis peltigera female moths. • The peptide was tested at a concentration of 300 pmol and was applied in DDW, DMSO and IIS for different times (ranging from 0.5 to 7 h). • Statistical analysis compared pheromone content in the presence of the peptide in a given solvent (DDW, DMSO or IIS) at different time points (indicated by small black letters) and between solvents at the same time point (indicated by capital light grey letters). […] FIG. 7A and FIG. 7B are graphs showing the dose-response of a topically applied peptide [Peptide 12 (7A) and Peptide 11 (7B)] on stimulation of sex pheromone biosynthesis in Heliothis peltigera female moths. The peptide was tested at the indicated concentrations and was applied in DDW, IIS and DMSO for 3 h. • Statistical analysis compared pheromone content in the presence of the peptide in a given solvent (DDW, DMSO or IIS) at different concentrations (indicated by black letters) and between solvents at the same concentration (indicated by capital light grey letters). […] The tested peptides are applied onto the insect (e.g. moths) at scotophase (when pheromone is naturally synthesized) in a given solvent for the indicated times. Examination of the effect of carrier solvent on penetrability and activity was tested as a function of time and concentration with peptides 11 and 12 (see Table 1) which are agonistic peptides, i.e. stimulate sex pheromone production in female moths.
# [2] = tested on: Heliothis peltigera female moths; experiment: Environmental (outdoor storage) stability, read out as sex pheromone production after injection; type: physicochemical; conditions: for stability: pheromone-stimulating activity after storage vs peptide stored at -80° C.: direct sunlight, about 31° C.; for stability in the course of storage: 4 weeks
# Experimental: FIG. 9. is a graph showing the stability of Peptide 12 in a powder form under different storage conditions. • The stability was evaluated by determining sex pheromone production in Heliothis peltigera females exposed to said peptide. • The storage conditions are: (i) exposure to direct sunlight and an average temperature of about 31° C. for 1 week (“outdoor 1 week”); (ii) room temperature (RT); and (iii) −80° C. • Sex pheromone content is expressed as a percentage of the pheromone content obtained by injection of a peptide stored at −80° C. (defined as 100%). Statistical analysis compared pheromone content generated by injection of a peptide stored at room temperature (RT) for 1 week or a peptide kept for 1 week outdoors with that of the control (a peptide stored at −80° C.). […] FIG. 10A and FIG. 10B are graphs showing the stability of Peptide 12 dissolved in DDW or ITS at a concentration of 1 nmol (10A) or 100 pmol (10B) under different storage conditions. • The stability was evaluated by determining sex pheromone production in Heliothis peltigera females exposed to said peptide. • The storage conditions are: (i) exposure to direct sunlight and an average temperature of about 31° C. for 1 week (“outdoor 1 week”); and (ii) −80° C. • Sex pheromone content is expressed as a percentage of the pheromone content obtained by injection of a peptide stored as a dry powder at −80° C. (defined as 100%). Statistical analysis compared the pheromone content generated by the different treatments with that of the control (a peptide stored at −80° C.). […] FIG. 11A and FIG. 11B are graphs showing the stability of Peptide 12 dissolved in DDW (A) or IIS (B) at a concentration of 1 nmol, and exposed to direct sunlight and temperatures in the range of 27° C. to 31° C. for 1-4 weeks or by a peptide stored at 4° C. for 1-4 weeks. • The stability was evaluated by determining sex pheromone production in Heliothis peltigera females exposed to said peptide. • Activity is expressed as a percentage of that obtained by Peptide 12 stored at −80° C. (defined as 100%, not shown in the figures). • Statistical analysis compared activity at the same storage time at 4° C. and outdoor, and as a function of time within the same treatment (outdoor or 4° C.) as a function of storage time (capital letters). […] This assay is used to test the agonistic properties of the tested peptides (in adult females), and to determine the peptides melanotropic agonistic or antagonistic properties (in larvae). It was also used to determine the activity of peptides that were stored outdoors for different amounts of time. In order to evaluate the environmental stability of the peptides, peptide 12 (in Table 1) was tested. Stability was monitored by exposing a tube containing the peptide, either in the form of a dry powder or in solution made up in either DDW or IIS at a concentration of 100 pmol or 1 nmol, to direct sun light and a temperature range of 27 to 31° C. (“outdoor”). […] Similar results were obtained at a lower dose of the peptide, of 100 pmol (FIG. 10B). The peptide was also tested for stability for 4 weeks when dissolved in either DDW or IIS, at a concentration of 1 nmol, under the same conditions as above at a temperature range of 27° C. to 31° C.
# [3] = tested on: Spodoptera littoralis larvae; experiment: Melanotropic inhibitory activity: injection with a stimulator (PBAN, PT, LPK, DH); type: in vivo; conditions: 100 pm
# Description: FIG. 12. is a graph showing the melanotropic inhibitory activity of the peptides of the invention against different stimulators of the PK/PBAN family: PBAN, PT (pheromonotropin), LPK (leucopyrokinin), DH (diapause hormone). • Degree of cuticular melanization is expressed as a percentage of the melanization obtained by injection the elicitor itself (PBAN, PT, LPK or DH) in the absence of the tested peptide (not shown). Statistical analysis compared the degree of melanization in the presence and absence of the tested peptide with any given elicitor. An asterisk indicates a significant difference between the degree of melanization obtained in the presence of the peptide. This assay is used to test the agonistic properties of the tested peptides (in adult females), and to determine the peptides melanotropic agonistic or antagonistic properties (in larvae). It was also used to determine the activity of peptides that were stored outdoors for different amounts of time. The peptides are injected into either adult female insects (e.g. moths) at photophase (when pheromone is not synthesized naturally, but the insect has the ability to produce pheromone upon stimulation with a agonist) or into 5th instar larvae. Agonistic properties were tested by injection of the peptides alone; antagonistic properties were determined by injection of the peptide together with a stimulator. The ability of the peptides to inhibit cuticular melanin synthesis was tested in Spodoptera littoralis larvae. Inhibitory activity was tested by injecting the peptides to Spodoptera littoralis larvae together with a given stimulator: PBAN, PT, LPK and DH. Inhibition is expressed as 100 minus the ratio in percentage (%) between the extents of cuticular melanization obtain in the presence and absence of the tested peptide (Table 2).
# [4] = tested on: Heliothis peltigera female moths; experiment: Topical application: inhibition of sex pheromone biosynthesis (cuticular bioavailability); type: in vivo; conditions: topical
# Experimental: FIG. 2. is a graph showing the effect of topically applied peptides on the inhibition of sex pheromone biosynthesis in Heliothis peltigera female moths. • The tested peptides are those listed in Table 1 (1-10, respectively). • Peptides were tested at a concentration of 10 pmol and were applied in IIS (0.5% ethanol, 0.05% Tween-80 in DDW), and DDW for 1 h. • Sex pheromone content is expressed as a percentage of the endogenous pheromone content obtained using control untreated moths (defined as 100%). Statistical analysis compared pheromone content in the presence of each peptide with that obtained with the corresponding solvents themselves (indicated by an asterisk).
# FIG. 3A and FIG. 3B are graphs showing the dose response of Ac-A-dPhe-4 (3A) or Ac-A-dPhe-6 (3B) on inhibition of sex pheromone biosynthesis in Heliothis peltigera female moths. Peptides were applied in DDW for 1 h. • Sex pheromone content is expressed as a percentage of the endogenous pheromone content obtained using control untreated moths (defined as 100%). Statistical analysis compared pheromone content in the presence of each peptide at the indicated concentrations with that obtained with the solvent itself (indicated by an asterisk). A similar statistical analysis was also made against the pheromone content of untreated moths (indicated by #). […] Differences in the potency of the peptides at the indicated concentrations are depicted by letters.
# FIG. 4. is a graph showing the time response of 1 nmol Ac-A-dPhe-4 and Ac-A-dPhe-6 (applied in DDW) on inhibition of sex pheromone biosynthesis in Heliothis peltigera female moths. • Sex pheromone content is expressed as a percentage of the endogenous pheromone content obtained using control untreated moths (defined as 100%). Statistical analysis compared pheromone content in the presence of each peptide at the indicated times with that obtained with the solvent itself at the same time point (indicated by an asterisk). […] Differences in the potency of the peptides at the indicated time points are depicted by letters. (Ac-A-dPhe-4: small letters; Ac-A-dPhe-6: capital letters).
# FIG. 5A to FIG. 5C are graphs showing the effect of topically applied peptides on inhibition of sex pheromone biosynthesis in Heliothis peltigera female moths. • The tested peptides are those listed in Table 1 (1-6, respectively). Peptides were tested at a concentration of 1000 pmol (5A), 300 pmol (5B) or 100 pmol (5C) and were applied in DDW, DMSO and IIS for 7h. • Sex pheromone content is expressed as a percentage of the endogenous pheromone content obtained using control untreated moths (defined as 100%). Statistical analysis compared pheromone content in the presence of each peptide in a given solvent (DDW, DMSO or ITS) with that obtained with the solvents themselves (indicated by an asterisk).
# a) Topical Application (TA)
# This assay is used to determine cuticular penetrability.
# The tested peptides are applied onto the insect (e.g. moths) at scotophase (when pheromone is naturally synthesized) in a given solvent for the indicated times.
# Antagonistic activity was tested at a concentration of 10 pmol and the peptides were topically applied in two solvents: DDW and IIS (FIG. 2). […] Ac-A-dPhe-6 was the second best in IIS inhibiting pheromone biosynthesis by 74%.
# Only minor differences in activity is observed as a function of a dose (with the exception of Ac-A-dPhe-4 at 1000 pmol, which inhibited pheromone production to a lesser extent of about 50%).
# All experiments were carried out at the scotophase and the peptides were applied one hour before pheromone glands were excised (+5) and tested for pheromone content (at the 6th hour of the scotophase when the pheromone content is at its highest level). The high inhibition obtained under the tested conditions, indicates the extremely fast and high penetrability and bioactivity of the peptides of the invention. […]
substance,measurement,setting,value
"Tyr-Phe-Trp-Pro-Arg-Leu-amide (YFWPRL-NH2) [Peptide 11, agonistic peptide lacking a dPhe residue, tested for bioavailability]",stimulation of sex pheromone biosynthesis,"[1]; 3 h, in DDW and IIS",barely any activity
same,stimulation of sex pheromone biosynthesis,"[1]; 3 h, in DMSO",very active
"Acetyl-Tyr-Phe-Trp-Pro-Arg-Leu-amide (Ac-YFWPRL-NH2) [Peptide 12, agonistic peptide lacking a dPhe residue, tested for bioavailability and environmental stability]",stimulation of sex pheromone biosynthesis: effect of carrier on bioavailability,"[1]; 300 pmol, DDW, DMSO and IIS, 0.5 to 7 h",IIS has been found to be the best carrier
same,"stimulation of sex pheromone biosynthesis, dose response by carrier","[1]; 3 h, DDW, IIS, DMSO",higher activity in IIS compared to DDW or DMSO
same,stability: pheromone-stimulating activity after storage vs peptide stored at -80° C.,"[2]; dissolved in DDW or IIS, 100 pmol, 1 week",no significant difference
same,activity of peptide kept outdoor vs at 4° C. at the same storage time,"[2]; dissolved in DDW or IIS, 1 nmol, 1-4 weeks",No differences
same,stability: pheromone-stimulating activity after storage vs peptide stored at -80° C.,"[2]; dissolved in DDW or IIS, 1 nmol, 1 week",no significant difference
same,stability in the course of storage,"[2]; dissolved in DDW, 1 nmol, outdoor 27° C. to 31° C. or 4° C.",the activity dropped in the course of storage
same,stability in the course of storage,"[2]; dissolved in IIS, 1 nmol, outdoor 27° C. to 31° C.",much more stable
same,stability: pheromone-stimulating activity after storage vs peptide stored at -80° C.,"[2]; dry powder, 1 week, or room temperature",no significant difference
Arg-Tyr-Phe-[dPhe]-Pro-Arg-Leu-amide (RYF[dF]PRL-NH2; N-terminus assumed; SMILES CC(C)C[C@H](NC(=O)[C@H](CCCNC(=N)N)NC(=O)[C@@H]1CCCN1C(=O)[C@@H](Cc1ccccc1)NC(=O)[C@H](Cc1ccccc1)NC(=O)[C@H](Cc1ccc(O)cc1)NC(=O)[C@@H](N)CCCNC(=N)N)C(N)=O) [dPhe-4],"Melanotropic inhibitory activity, stimulator DH",[3]; injected with DH (diapause hormone),33%
same,"Melanotropic inhibitory activity, stimulator LPK",[3]; injected with LPK (leucopyrokinin),10%
same,"Melanotropic inhibitory activity, stimulator PBAN","[3]; injected with PBAN, inhibition = 100 minus % melanization with vs without peptide",18%
same,"Melanotropic inhibitory activity, stimulator PT",[3]; injected with PT (pheromonotropin),59%
same,lowering of pheromone content compared to the solvent,"[4]; 10 pmol, in IIS, 1 h",failed to lower pheromone content
same,activity as a function of carrier,"[4]; 300 pmol, 7 h, DDW, IIS, DMSO",lower activity in DDW and IIS compared to DMSO
